Measured values: ChEMBL document CHEMBL2413002, “A convenient synthesis of lubeluzole and its enantiomer: evaluation as chemosensitizing agents on human ovarian adenocarcinoma and lung carcinoma cells” (Bioorg Med Chem Lett, 2013)

Key:
A2780 [1] = assay: Cytotoxicity against human A2780 cells after 72 hrs by MTT assay; type: functional, cell-based; settings: A2780, 72 h
A549 [2] = assay: Cytotoxicity against human A549 cells after 72 hrs by MTT assay; type: functional, cell-based; settings: A549, 72 h
A2780 [3] = assay: Antiproliferative activity against human A2780 cells at 0.005 uM after 72 hrs by MTT assay; type: functional; settings: A2780, 72 h
A549 [4] = assay: Antiproliferative activity against human A549 cells at 0.005 uM after 72 hrs by MTT assay; type: functional; settings: A549, 72 h

SMILES | IC50 (A2780 [1]) | IC50 (A549 [2]) | inhibition at 0.005 µM (A2780 [3]) | inhibition at 0.005 µM (A549 [4])
CN(c1nc2ccccc2s1)C1CCN(C[C@@H](O)COc2ccc(F)c(F)c2)CC1 | 14 µM | 18 µM |  | 
COc1cccc2c1C(=O)c1c(O)c3c(c(O)c1C2=O)C[C@@](O)(C(=O)CO)C[C@@H]3O[C@H]1C[C@H](N)[C@H](O)[C@H](C)O1 [DOXORUBICIN] | 0.023 µM |  |  | 
CN(c1nc2ccccc2s1)C1CCN(C[C@H](O)COc2ccc(F)c(F)c2)CC1 [LUBELUZOLE] | 5.7 µM | 14 µM | 4.3% | 5.2%
CC(=O)O[C@H]1C(=O)[C@@]2(C)[C@H]([C@H](OC(=O)c3ccccc3)[C@]3(O)C[C@H](OC(=O)[C@H](O)[C@@H](NC(=O)c4ccccc4)c4ccccc4)C(C)=C1C3(C)C)[C@]1(OC(C)=O)CO[C@@H]1C[C@@H]2O [PACLITAXEL] |  | 0.014 µM |  | 
